Data: US8642801B2 (BHI Limited Partnership, priority 2003, dated 2014)
Structures can show the parent of a compound that is named as a salt.

Legend:
[1] = biological target: T1, Aβ40 and Aβ42 peptides in plasma and brain of TgCRND8 mice (Homo sapiens, UniProt P05067); test: Short term treatment in adult transgenic CRND8 mice overexpressing βAPP: Aβ levels in plasma and brain by ELISA; assay type: in vivo, Mouse; settings: Brain Homogenate Vehicle Group, TgCRND8 mice, 250 mg/kg daily
T1 construct: ELISA using Human Aβ40 and Aβ42 Fluorometric ELISA kits from Biosource; from tissue; host or cells: plasma and brain homogenate of TgCRND8 transgenic mice (hAPP transgene)
Description: Transgenic mice, […]8, expressing the human amyloid precursor protein (hAPP) develop a pathology resembling Alzheimer's disease. In particular, high levels of Aβ40 and Aβ 42 have been documented in the plasma and the brain of these animals at 8-9 weeks of age, followed by early accumulation of amyloid plaques similar to the senile plaques observed in AD patients. These animals also display progressive cognitive deficits that parallel the appearance of degenerative changes. See, […], et al., J. Biol. Chem. 276, 21562-70 (2001). The short term therapeutic effect of 19 compounds of the invention was studied. […] The following abbreviations are used to designate these animals from the 3rd and 4th generation backcross in the present protocol: TgCRND8-2.B6C3F1(N3); TgCRND8-2.B6C3F1(N4). Baseline animals (Group 1) consisted of naive TgCRND8-2. B6C3F1(N3) at 11±1 weeks of age. These mice were used to determine the Aβ levels in the plasma and brain of naive transgenic animals at the initiation of treatment. […] At the end of the treatment periods, plasma and perfused brains were collected for quantification of Aβ levels. […] Plasma samples were immediately frozen and stored at -80° C. pending analysis. The brains were removed, frozen, and stored at -80° C. awaiting analysis. […] Samples were spun at 15000 g for 20 minutes and the supernatants were transferred to fresh tubes. […] The tubes were vortexed for 30 seconds and frozen at -80° C. […] Samples were thawed at room temperature, sonicated at 80° C. for 15 minutes and frozen again. This cycle was repeated 3 times to ensure homogeneity and samples were returned to -80° C. pending analysis. Aβ levels were evaluated in plasma and brain samples by ELISA using Human Aβ40 and Aβ42 Fluorometric ELISA kits from Biosource (Cat. […] In short, samples were thawed at room temperature, sonicated for 5 minutes at 80° C. (sonication for brain homogenates; no sonication for plasma samples) and kept on ice. Aβ peptides were captured using 100 μl of the diluted samples to the plate and incubated without shaking at 4° C. overnight. The samples were aspirated and the wells were rinsed 4 times with wash buffer obtained from the Biosource ELISA kit. The anti-Aβ40 or anti-Aβ42 rabbit polyclonal antiserum (specific for the Aβ40 or Aβ42 peptide) was added (100 μl) and the plate was incubated at room temperature for 2 hours with shaking. The wells were aspirated and washed 4 times before adding 100 μl of the alkaline phosphatase labeled anti-rabbit antibody and incubating at room temperature for 2 hours with shaking. The plates were then rinsed 5 times and the fluorescent substrate (100 μl) was added to the plate. The plate was incubated for 35 minutes at room temperature and the plate was read using a titer plate reader at an excitation wavelength of 460 nm and emission at 560 nm Compounds were scored based on their ability to modulate levels of Aβ peptides in the plasma and the cerebral soluble/insoluble levels in the brain. Levels of Aβ observed in the plasma and brain of treated animals were normalized using values from vehicle-treated (water) or methylcellulose-treated control groups and ranked according to the strength of the pharmacological effect. Increases in the levels of Aβ peptides are indicated using “+” symbols, while decreases in the levels of Aβ peptides are indicated using “-” symbols. The strongest effects are recorded as “+++” or “- - -” while the weakest are shown as “+” or “-”.

IAPP = biological target: T2, IAPP (Homo sapiens, UniProt P10997); test: MS (electrospray mass spectrometry) binding assay for IAPP
T2 construct: which is a 37 amino acid peptide, derived from a larger precursor peptide, called pro-IAPP
T2 sequence (P10997 34-70 limits assumed): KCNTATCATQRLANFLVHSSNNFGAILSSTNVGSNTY

[2] = Table 3D, 40 μM Aβ peptide, 400 μM compound (so in the source)
[3] = Table 3B, 30 μM Aβ peptide, 150 μM compound (so in the source)

Row | Structure (SMILES) | MS binding IAPP (IAPP; [2]) | MS binding IAPP (IAPP; [3]) | other results
1 | COc1ccc([C@H](C)NCCCS(=O)(=O)O)cc1 [DZ, 3-[(S)-1-(4-methoxyphenyl)ethyl]amino-1-propanesulfonic acid] | – | – | Brain homogenate Aβ42 Change Insoluble ([1]; Day 14): −− (decreases of 20 to 38% are scored as “− −”); Brain homogenate Aβ40 Change Insoluble ([1]; Day 28): −− (decreases of 20 to 38% are scored as “− −”); Brain homogenate Aβ40 Change Soluble ([1]; Day 28): − (Decreases in the levels of Aβ of 5 to 19% are scored as “−”); Brain homogenate Aβ42 Change Insoluble ([1]; Day 28): −− (decreases of 20 to 38% are scored as “− −”); Brain homogenate Aβ42 Change Soluble ([1]; Day 28): −− (decreases of 20 to 38% are scored as “− −”)
2 | CC1CC(NCCCS(=O)(=O)O)CC(C)(C)C1 (stereo not shown) [ED, 3-(3,3,5-trimethylcyclohexyl)amino-1-1-propanesulfonic acid] | – | – | Brain homogenate Aβ40 Change Insoluble ([1]; Day 14): + (increases in the levels of Aβ (relative to untreated control) of 20 to 39% are scored as “+”); Brain homogenate Aβ40 Change Soluble ([1]; Day 14): − (Decreases in the levels of Aβ of 5 to 19% are scored as “−”); Brain homogenate Aβ40 Change Insoluble ([1]; Day 28): −− (decreases of 20 to 38% are scored as “− −”); Brain homogenate Aβ40 Change Soluble ([1]; Day 28): − (Decreases in the levels of Aβ of 5 to 19% are scored as “−”); Brain homogenate Aβ42 Change Insoluble ([1]; Day 28): − (Decreases in the levels of Aβ of 5 to 19% are scored as “−”); Brain homogenate Aβ42 Change Soluble ([1]; Day 28): − (Decreases in the levels of Aβ of 5 to 19% are scored as “−”)
3 | [N-]=[N+]=NCCCS(=O)(=O)O [HN] | − (<20%=(−)) | – | –
4 | O=S(=O)([O-])CCC[n+]1ccn(CCCS(=O)(=O)O)c1 [HP] | − (<20%=(−)) | – | –
5 | O=S(=O)(O)CCCn1cc[n+](CCCS(=O)(=O)O)c1 [HS] | − (<20%=(−)) | – | –
6 | O=S(=O)(O)CCCn1cc[n+](CCCn2ccnc2)c1 [HW] | − (<20%=(−)) | – | –
7 | O=S(=O)(O)CCCN/C=C\NCCCS(=O)(=O)O [HX] | − (<20%=(−)) | – | –
8 | NCCCCC(NCCCS(=O)(=O)O)C(=O)O (stereo not shown) [HY] | − (<20%=(−)) | – | –
9 | O=C(O)CNCCCS(=O)(=O)O [HZ] | − (<20%=(−)) | – | –
10 | COC(=O)[C@@H](Cc1ccc(I)cc1)NCCCS(=O)(=O)O [IB] | + (20-39% binding=(+)) | – | –
11 | C[N+](C)(CCCS(=O)(=O)[O-])CCCS(=O)(=O)O [IF] | − (<20%=(−)) | – | –
12 | Nc1cccc2c1CCN(CCCS(=O)(=O)O)C2 [IH] | + (20-39% binding=(+)) | – | –
13 | CC(=O)N(C(C)=O)c1cccc2c[n+](CCCS(=O)(=O)[O-])ccc12 [II] | − (<20%=(−)) | – | –
14 | O=[N+]([O-])c1cccc2c[n+](CCCS(=O)(=O)[O-])ccc12 [IJ] | + (20-39% binding=(+)) | – | –
15 | O=S(=O)(O)CCCN1CCc2c(Br)cccc2C1 [IK] | + (20-39% binding=(+)) | – | –
16 | O=[N+]([O-])c1ccc2c(c1)CN(CCCS(=O)(=O)O)CC2 [IL] | + (20-39% binding=(+)) | – | –
17 | Nc1ccc2c(c1)CN(CCCS(=O)(=O)O)CC2 [IM] | − (<20%=(−)) | – | –
18 | O=S(=O)(O)CCCN1CCc2ccc(Br)cc2C1 [IN] | + (20-39% binding=(+)) | – | –
19 | O=S(=O)(O)CCCN1CCc2c(I)cccc2C1 [IP] | + (20-39% binding=(+)) | – | –
20 | O=S(=O)(O)CCCN1CCc2c([nH]c3ccc(Br)cc23)C1 [IR] | + (20-39% binding=(+)) | – | –

Row | Structure (SMILES) | MS binding IAPP (IAPP; [2]) | MS binding IAPP (IAPP; [3]) | other results
21 | O=[N+]([O-])c1ccc2[nH]c3c(c2c1)CCN(CCCS(=O)(=O)O)C3 [IT] | + (20-39% binding=(+)) | – | –
22 | O=C(O)c1ccc2[nH]c3c(c2c1)CCN(CCCS(=O)(=O)O)C3 [IU] | − (<20%=(−)) | – | –
23 | CC(CCNCc1ccccc1)S(=O)(=O)[O-].[Na+] (stereo not shown) [JP, 4-(benzylamino)-2-butanesulfonic acid, sodium salt] | – | +++ (60-100% binding=(+++)) | –
24 | CCNCCC(C)S(=O)(=O)O (stereo not shown) [JQ, 4-(ethylamino)-2-butanesulfonic acid, sodium salt] | – | +++ (60-100% binding=(+++)) | –
25 | CC(C)(C)NCC(O)CS(=O)(=O)O (stereo not shown) [JV, 3-(tert-butylamino)-2-hydroxy-1-propanesulfonic acid] | – | ++ (40-59% binding=(++)) | –
26 | O=S(=O)([O-])CC(O)CNC12CC3CC(CC(C3)C1)C2.[Na+] (stereo not shown) [KB, 4-(adamantan-1-ylamino)-2-hydroxy-1-propanesulfonic acid] | – | +++ (60-100% binding=(+++)) | –
27 | CC(C)CCNCCC(C)S(=O)(=O)O (stereo not shown) [KH, 4-[(3-methylbutyl)amino]-2-butanesulfonic acid] | – | ++ (40-59% binding=(++)) | –
28 | O=S(=O)(O)CC(O)CNC1C2CC3CC(C2)CC1C3 (stereo not shown) [KJ, 3-(2-adamantylamino)-2-hydroxy-1-propanesulfonic acid] | – | +++ (60-100% binding=(+++)) | –
29 | CC(CCNC1CCCCC1)S(=O)(=O)O (stereo not shown) [KM, 4-(cyclohexylamino)-2-butanesulfonic acid] | – | +++ (60-100% binding=(+++)) | –
30 | N[C@@H](Cc1ccccc1)C(=O)NCCCS(=O)(=O)O [KN] | – | ++ (40-59% binding=(++)) | –
31 | CC(C)(C)NCCS(=O)(=O)O [KS] | – | +++ (60-100% binding=(+++)) | –
32 | N[C@@H](Cc1ccccc1)C(=O)NCCS(=O)(=O)O [KT] | – | ++ (40-59% binding=(++)) | –
33 | O=C(NCCCCS(=O)(=O)O)OCc1ccccc1 [KV] | + (20-39% binding=(+)) | – | –
34 | Nc1ccc2[nH]c3c(c2c1)CCN(CCCCS(=O)(=O)O)C3 [KW] | + (20-39% binding=(+)) | – | –
35 | O=S(=O)(O)CCCCN1CCc2c([nH]c3ccc(Br)cc23)C1 [KX] | + (20-39% binding=(+)) | – | –
36 | O=[N+]([O-])c1ccc2[nH]c3c(c2c1)CCN(CCCCS(=O)(=O)O)C3 [KY] | + (20-39% binding=(+)) | – | –
37 | O=C(O)c1ccc2[nH]c3c(c2c1)CCN(CCCCS(=O)(=O)O)C3 [LA] | − (<20%=(−)) | – | –
38 | O=S(=O)(O)CCCCNC1CCCCC1 [LK, 4-(cyclohexylamino)-1-butanesulfonic acid] | – | ++ (40-59% binding=(++)) | –
39 | O=S(=O)(O)CCCCNC1C2CC3CC(C2)CC1C3 (stereo not shown) [LN, 4-(2-adamantyl)amino-1-butanesulfonic acid] | – | +++ (60-100% binding=(+++)) | –
40 | NCCCCCS(=O)(=O)O [LP] | +++ (75-100% binding=(+++)) | – | –
